From patent publication US10501518B2 (priority 2013, dated 2019)
Non-standard residues stand in square brackets, D forms with d. Residues, ends and D or L forms follow the SMILES beside them. β3hA = C[C@H](N)CC(=O)O

Key:
Assay type in all cases: cell-based
[1] = tested on: PTH2R/PTH1R; experiment: cAMP response selectivity between PTH2R and PTH1R; details: Table 16; most selective
Excerpt: Selected analogs containing beta-amino acid substitutions selectively signal through one or the other of the two receptors. Without being bound to any underling biological phenomenon or mechanism, PTHR-2 likely serves an alternative function to PTHR-1 as it is highly expressed in the central nervous system. In contrast, PTHR-1 is highly expressed in bone and kidney, but not in the CNS. The analogs disclosed herein are thus useful as therapeutic compounds that a specific agonists or antagonists of PTHR-1 and PTHR-2.

[2] = target: T1, delNT PTHR1 (Homo sapiens, UniProt Q03431, DEL24-181); experiment: cAMP-inducing potency at truncated receptor delNT PTHR1; details: Table 8; EC50 relative to PTH(1-34)
T1 construct: expressed in transfected cells
T1 sequence (Q03431 with tags, fused parts or gaps DEL24-181): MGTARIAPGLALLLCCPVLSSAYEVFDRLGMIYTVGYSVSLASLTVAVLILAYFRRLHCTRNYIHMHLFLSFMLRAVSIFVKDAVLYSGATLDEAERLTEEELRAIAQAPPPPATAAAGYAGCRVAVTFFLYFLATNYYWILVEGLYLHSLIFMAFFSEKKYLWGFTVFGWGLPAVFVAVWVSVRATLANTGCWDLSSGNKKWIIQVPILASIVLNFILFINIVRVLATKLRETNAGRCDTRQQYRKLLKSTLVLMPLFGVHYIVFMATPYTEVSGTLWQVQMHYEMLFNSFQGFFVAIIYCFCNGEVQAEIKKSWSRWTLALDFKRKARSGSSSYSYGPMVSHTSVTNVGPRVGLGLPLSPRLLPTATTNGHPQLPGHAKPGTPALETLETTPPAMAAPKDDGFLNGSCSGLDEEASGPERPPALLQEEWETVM

[3] = target: T2, WT human PTHR-1 (Homo sapiens, UniProt Q03431); experiment: cAMP GloSensor dose-response in GP-2.3 cells expressing human PTHR-1; details: Table 8; for Fold PTH, nM (hPTHR1): EC50 relative to PTH(1-34)
T2 construct: bioactivity of the resulting compound in full-length hPTHR-1 and a truncated version; expressed in transfected cells
T2 sequence (Q03431 27-593): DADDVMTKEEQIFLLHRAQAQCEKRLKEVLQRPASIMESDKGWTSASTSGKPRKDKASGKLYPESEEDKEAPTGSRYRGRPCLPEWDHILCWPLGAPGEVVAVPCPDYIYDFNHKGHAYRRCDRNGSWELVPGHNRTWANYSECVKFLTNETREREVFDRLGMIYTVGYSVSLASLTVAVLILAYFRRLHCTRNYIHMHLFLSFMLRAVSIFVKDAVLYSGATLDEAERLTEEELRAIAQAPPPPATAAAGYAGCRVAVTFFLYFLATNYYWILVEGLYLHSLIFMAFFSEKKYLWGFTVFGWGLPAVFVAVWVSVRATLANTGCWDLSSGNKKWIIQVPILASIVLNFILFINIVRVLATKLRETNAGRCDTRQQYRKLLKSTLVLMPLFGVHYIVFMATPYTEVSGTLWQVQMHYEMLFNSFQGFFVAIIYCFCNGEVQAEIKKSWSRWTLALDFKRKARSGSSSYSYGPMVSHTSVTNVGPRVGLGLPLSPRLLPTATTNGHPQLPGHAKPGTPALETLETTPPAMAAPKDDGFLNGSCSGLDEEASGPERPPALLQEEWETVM
Outline: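 Confluent cells preloaded with 0.5 mM d-luciferin at room temperature until luminescence baseline stabilised (30 min), then given varying agonist concentrations. Luminescence time course recorded after α/β-peptide addition. Means ±SEM of n>4 experiments, each in duplicate.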

Fold PTH, nM (deINT PTHR1) [2] | Fold PTH, nM (hPTHR1) [3] | EC50 ([3]; cAMP-inducing potency, N-terminal modifications, read-out: hPTHR1 EC50, nM (Means ± SEM)) | SMILES | cAMP response PTH2R/PTH1R [1]
110 | 159.7 | – | CC[C@H](C)[C@H](NC(=O)[C@H](CCC(=O)O)NC(=O)[C@H](CO)NC(=O)[C@@H](NC(=O)[C@@H](N)CO)C(C)C)C(=O)N[C@@H](CCC(N)=O)CC(=O)N[C@@H](CC(C)C)C(=O)N[C@@H](CCSC)C(=O)N[C@@H](Cc1c[nH]cn1)C(=O)N[C@@H](CC(N)=O)C(=O)N[C@@H](CC(C)C)C(=O)NCC(=O)N[C@@H](CCCCN)C(=O)N[C@@H](Cc1c[nH]cn1)C(=O)N[C@@H](CC(C)C)C(=O)N[C@@H](CC(N)=O)C(=O)N[C@@H](CO)C(=O)N[C@@H](CCSC)C(=O)N[C@@H](CCC(=O)O)C(=O)N[C@@H](CCCNC(=N)N)C(=O)N[C@H](C(=O)N[C@@H](CCC(=O)O)C(=O)N[C@@H](Cc1c[nH]c2ccccc12)C(=O)N[C@@H](CC(C)C)C(=O)N[C@@H](CCCNC(=N)N)C(=O)N[C@@H](CCCCN)C(=O)N[C@@H](CCCCN)C(=O)N[C@@H](CC(C)C)C(=O)N[C@@H](CCC(N)=O)C(=O)N[C@@H](CC(=O)O)C(=O)N[C@H](C(=O)N[C@@H](Cc1c[nH]cn1)C(=O)N[C@@H](CC(N)=O)C(=O)N[C@@H](Cc1ccccc1)C(N)=O)C(C)C)C(C)C [β^3Gln(6)] | 133
0.4 | 2.2 | 0.2 ± 0.09 nM | CC[C@H](C)[C@H](NC(=O)[C@H](CCC(=O)O)NC(=O)[C@H](CO)NC(=O)[C@@H](NC(=O)C[C@H](C)N)C(C)C)C(=O)N[C@@H](CCC(N)=O)C(=O)N[C@@H](CC(C)C)C(=O)N[C@@H](CCSC)C(=O)N[C@@H](Cc1c[nH]cn1)C(=O)N[C@@H](CC(N)=O)C(=O)N[C@@H](CC(C)C)C(=O)NCC(=O)N[C@@H](CCCCN)C(=O)N[C@@H](Cc1c[nH]cn1)C(=O)N[C@@H](CC(C)C)C(=O)N[C@@H](CC(N)=O)C(=O)N[C@@H](CO)C(=O)N[C@@H](CCSC)C(=O)N[C@@H](CCC(=O)O)C(=O)N[C@@H](CCCNC(=N)N)C(=O)N[C@H](C(=O)N[C@@H](CCC(=O)O)C(=O)N[C@@H](Cc1c[nH]c2ccccc12)C(=O)N[C@@H](CC(C)C)C(=O)N[C@@H](CCCNC(=N)N)C(=O)N[C@@H](CCCCN)C(=O)N[C@@H](CCCCN)C(=O)N[C@@H](CC(C)C)C(=O)N[C@@H](CCC(N)=O)C(=O)N[C@@H](CC(=O)O)C(=O)N[C@H](C(=O)N[C@@H](Cc1c[nH]cn1)C(=O)N[C@@H](CC(N)=O)C(=O)N[C@@H](Cc1ccccc1)C(N)=O)C(C)C)C(C)C [β^3Ala(1)] (H-[β3hA]VSEIQLMHNLGKHLNSMERVEWLRKKLQDVHNF-NH2) | –
